Test results: patent US20030181498A1, “Bicyclic heteroaryl compounds as inhibitors of the interaction between the integrin alpha4beta1 receptor and vcam-1 and/or fibronectin” (AstraZeneca AB, priority 2000, published 2003)

Target: T1, integrin α4β1 expressed on the MOLT-4 cell membrane with fibronectin (Homo sapiens, UniProt P05556+P13612)
T1 construct: integrin α4β1 expressed on the MOLT-4 cell membrane; host or cells: MOLT-4 human T-lymphoblastic leukaemia cells
Assay: MOLT-4 cell/fibronectin adhesion assay
Type: cell-based
Conditions: MOLT-4 cells, fibronectin-coated plates, 2 h at 37° C.; read-out: inhibitor at (inhibition of MOLT-4 cell adhesion to fibronectin)
Excerpt: MOLT4 cells—human T-lymphoblastic leukaemia cells European Collection of Anil Cell Cultures, Porton Down)
Fibronectin—purified from human plasma by gelatin-sepharose affinity chromatography according to the methods described in E. Nengvall, E. Ruoslahti, Int. J. Cancer, 1977, 20, pages 1-5 and J. Forsyth et al, Methods in Enzymology, 1992, 21 pages 311-316).
1.1.1 MOLT-4 Cell/Fibronectin Adhesion Assay.
The MOLT-4 cell/fibronectin adhesion assay was used to investigate the interaction of the integrin α4β1 expressed on the MOLT-4 cell membrane with fibronectin. Polystyrene 96 well plates were coated overnight at 4° C. with fibronectin, 100 μl of 10 μg/ml in PBS. Non-specific adhesion sites were blocked by adding 100 μl BSA, 20 mg/ml. After incubating for 1 h at room temperature, the solutions were aspirated. […] Adherent cells were quantified by a colorimetric acid phosphatase assay. […] After incubation for 1 h at 37° C., 50 μl sodium hydroxide (1M) was added to each well and the absorbance 405 nm was measured on a microplate spectrophotometer. Compounds which inhibited adhesion gave a lower absorbance reading. […] Percentage inhibition was calculated with respect to total (no inhibitor) and non-specific (no fibronectin) standards on each plate. […]

T1 sequence (P13612 34-1032): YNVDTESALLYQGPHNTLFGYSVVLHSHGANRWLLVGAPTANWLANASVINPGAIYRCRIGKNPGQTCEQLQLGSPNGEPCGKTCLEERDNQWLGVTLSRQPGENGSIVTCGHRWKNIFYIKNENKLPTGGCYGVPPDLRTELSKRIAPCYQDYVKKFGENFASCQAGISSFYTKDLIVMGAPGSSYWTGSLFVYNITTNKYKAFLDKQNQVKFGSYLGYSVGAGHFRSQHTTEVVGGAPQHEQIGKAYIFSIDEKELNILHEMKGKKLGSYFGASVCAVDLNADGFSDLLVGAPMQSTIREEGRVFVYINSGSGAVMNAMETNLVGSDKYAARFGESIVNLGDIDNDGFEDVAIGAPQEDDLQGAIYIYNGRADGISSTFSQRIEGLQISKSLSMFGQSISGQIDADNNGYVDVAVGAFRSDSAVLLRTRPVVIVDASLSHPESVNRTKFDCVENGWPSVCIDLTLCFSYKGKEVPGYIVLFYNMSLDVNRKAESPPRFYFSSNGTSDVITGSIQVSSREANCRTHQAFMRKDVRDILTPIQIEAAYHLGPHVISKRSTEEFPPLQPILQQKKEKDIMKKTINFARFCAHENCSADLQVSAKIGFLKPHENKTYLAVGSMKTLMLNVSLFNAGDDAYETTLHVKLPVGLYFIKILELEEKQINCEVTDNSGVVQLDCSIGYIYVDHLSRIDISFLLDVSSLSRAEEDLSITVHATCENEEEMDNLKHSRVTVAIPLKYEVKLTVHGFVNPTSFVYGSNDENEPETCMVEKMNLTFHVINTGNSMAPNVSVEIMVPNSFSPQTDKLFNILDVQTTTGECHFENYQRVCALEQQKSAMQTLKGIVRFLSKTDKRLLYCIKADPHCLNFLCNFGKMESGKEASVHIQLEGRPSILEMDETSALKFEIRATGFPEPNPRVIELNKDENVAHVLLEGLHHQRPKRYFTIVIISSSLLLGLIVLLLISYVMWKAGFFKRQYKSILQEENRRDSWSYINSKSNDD
T1 sequence (P05556 21-798): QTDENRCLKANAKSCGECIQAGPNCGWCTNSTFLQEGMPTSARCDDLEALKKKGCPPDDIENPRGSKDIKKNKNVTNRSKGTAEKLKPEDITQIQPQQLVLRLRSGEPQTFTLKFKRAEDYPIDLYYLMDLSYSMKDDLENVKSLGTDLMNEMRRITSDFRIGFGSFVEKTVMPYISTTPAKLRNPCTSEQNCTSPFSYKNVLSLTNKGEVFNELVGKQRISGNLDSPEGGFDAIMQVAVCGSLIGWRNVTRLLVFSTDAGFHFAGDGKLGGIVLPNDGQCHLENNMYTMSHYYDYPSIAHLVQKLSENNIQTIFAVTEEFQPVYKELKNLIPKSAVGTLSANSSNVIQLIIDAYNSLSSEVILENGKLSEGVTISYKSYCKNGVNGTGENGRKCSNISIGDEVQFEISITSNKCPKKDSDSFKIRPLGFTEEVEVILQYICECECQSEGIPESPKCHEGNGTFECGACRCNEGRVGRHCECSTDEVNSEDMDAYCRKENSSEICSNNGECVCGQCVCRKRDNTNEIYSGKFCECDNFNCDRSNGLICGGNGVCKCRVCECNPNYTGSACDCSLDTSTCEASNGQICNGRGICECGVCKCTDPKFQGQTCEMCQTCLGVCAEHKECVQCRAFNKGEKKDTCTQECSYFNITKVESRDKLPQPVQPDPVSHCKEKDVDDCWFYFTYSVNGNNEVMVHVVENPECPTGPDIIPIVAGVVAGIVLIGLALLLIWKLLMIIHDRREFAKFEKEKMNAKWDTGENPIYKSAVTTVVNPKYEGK

Work on COc1cc(CC(=O)Nc2ccc(=O)n(CCCCC(=O)O)c2)cc2oc(Nc3ccccc3)nc12 [Compound CV] yielded an IC50 of 1100 nM.
